Measured values: patent US20190233884A1 (University of Southern California, priority 2016, published 2019)

System: patients with refractory metastatic colorectal cancer (mCRC)
Experiment: PFS, OS and disease control in the testing (validation) cohort of refractory mCRC patients receiving TAS-102 (n=129, Italy), by baseline characteristics, SNP genotype and toxicity
Format: in vivo, human
Conditions: validation cohort
Experimental: All patients underwent the treatment in salvage-line setting. […]
Genomic DNA was extracted from peripheral whole blood in patients of all cohorts using the QIAmp Kit (Qiagen, Valencia, Calif., USA) according to the manufacturer's protocol (www.qiagen.com). The candidate SNPs were genotyped using PCR-based direct DNA sequence analysis by ABI 3100A Capillary Genetic Analyzer and Sequencing Scanner v1.0 (Applied Biosystems). Amplification of extracted DNA was carried out using both forward and reverse primers for each gene polymorphism as shown in Table 1. […] The investigators analyzing SNPs were blinded to the clinical data of the study patients.
The primary endpoint in this study was progression-free survival (PFS), and the secondary endpoints were overall survival (OS) and disease control rate (DCR). PFS was calculated from the date of starting treatment to the first observation of disease progression or death from any cause. If a patient had no disease progression or death, PFS was censored at the date of last follow up. OS was calculated from the date of starting treatment until the date of death from any cause or the date of the last follow-up, at which point OS was censored. The disease control rate (DCR) was defined as the proportion of patients who achieved a stable disease (SD) or […] according to RECISTv1.1. Chi-square test was used to examine the difference in baseline patient characteristics among the three cohorts. Allelic distribution of all SNPs by ethnicity for deviation from Hardy-Weinberg equilibrium and the allelic frequencies of SNPs were tested using the Chi-square tests with one degree of freedom. The associations between candidate SNPs and disease control, and toxicities were examined using contingency tables and Fisher's exact test. The associations of SNPs with PFS and OS were analysed using Kaplan-Meier curves and the log-rank test. Because the true mode of inheritance of candidate SNPs was not established yet, a codominant or dominant genetic model if appropriate was considered.
All patients underwent the treatment in salvage-line setting. […] In all patients, adverse events were graded according to the Common Terminology Criteria for Adverse Events, version 4.0. […]
Genomic DNA was extracted from peripheral whole blood in patients of all cohorts using the QIAmp Kit (Qiagen, Valencia, Calif., USA) according to the manufacturer's protocol (www.qiagen.com). The candidate SNPs were tested using PCR-based direct DNA sequence analysis by ABI 3100A Capillary Genetic Analyzer and Sequencing Scanner v1.0 (Applied Biosystems). […] The investigators analyzing SNPs were blinded to the clinical data.
The primary endpoint in this study was progression-free survival (PFS), and the secondary endpoints were overall survival (OS) and disease control rate (DCR).

[1] = ATM rs609429 C/G vs C/C (Ref.), multivariable
[2] = ATM rs609429 C/G vs C/C (Ref.), univariate
[3] = ATM rs609429 G/G vs C/C (Ref.), multivariable
[4] = ATM rs609429 G/G vs C/C (Ref.), univariate
[5] = Adjuvant Oxa No vs Yes (Ref.), univariate
[6] = Adjuvant history No vs Yes (Ref.), univariate
[7] = Age group ≥61 vs <61 (Ref.), univariate
[8] = BRAF status Mutant vs Wild type (Ref.), univariate
[9] = CHEK2 rs2267130 Any C vs T/T (Ref.), multivariable
[10] = CHEK2 rs2267130 Any C vs T/T (Ref.), univariate
[11] = CHEK2 rs2267130 C/C vs T/T (Ref.), multivariable
[12] = CHEK2 rs2267130 C/C vs T/T (Ref.), univariate
[13] = CHEK2 rs2267130 T/C vs T/T (Ref.), multivariable
[14] = CHEK2 rs2267130 T/C vs T/T (Ref.), univariate
[15] = Grading 3 vs 1-2 (Ref.), univariate
[16] = LN metastasis No vs Yes (Ref.), univariate
[17] = Liver metastasis No vs Yes (Ref.), univariate
[18] = Lung metastasis No vs Yes (Ref.), univariate
[19] = Mucinous histology No vs Yes (Ref.), univariate
[20] = Number of metastases >2 vs ≤2 (Ref.), univariate

Substance: Trifluridine/tipiracil [TAS-102]
- Disease Control CR/PR/SD, patients n (%) (ATM rs609429 C/G): 20 (32%)
- Median PFS (95% CI) (ATM rs609429 C/G): 2.0 (1.9, 2.3) months
- PD, patients n (%) (ATM rs609429 C/G): 43 (68%)
- HR OS (95% CI) [1]: 0.71 (0.39, 1.30)
- HR PFS (95% CI) [1]: 0.77 (0.50, 1.20)
- HR OS (95% CI) [2]: 0.71 (0.40, 1.26)
- HR PFS (95% CI) [2]: 0.76 (0.50, 1.16)
- Disease Control CR/PR/SD, patients n (%) (ATM rs609429 G/G): 6 (40%)
- Median OS (95% CI) (ATM rs609429 G/G): 5.8 (2.7, 7.1+) months
- Median PFS (95% CI) (ATM rs609429 G/G): 2.0 (1.2, 6.1) months
- PD, patients n (%) (ATM rs609429 G/G): 9 (60%)
- HR OS (95% CI) [3]: 1.43 (0.56, 3.65)
- HR PFS (95% CI) [3]: 1.32 (0.67, 2.59)
- HR OS (95% CI) [4]: 0.82 (0.34, 2.00)
- HR PFS (95% CI) [4]: 0.85 (0.45, 1.63)
- Median OS (Adjuvant Oxa No): 5.8 months
- Median PFS (Adjuvant Oxa No): 1.9 months
- HR OS [5]: 1.17
- HR PFS [5]: 1.06
- Median OS (Adjuvant Oxa Yes): 8.5+ months
- Median PFS (Adjuvant Oxa Yes): 2.0 months
- Median OS (Adjuvant history No): 5.5 months
- Median PFS (Adjuvant history No): 1.9 months
- HR OS [6]: 1.23
- HR PFS [6]: 1.25
- Median OS (Adjuvant history Yes): 8.5+ months
- Median PFS (Adjuvant history Yes): 2.0 months
- Median OS (Age group <61): 4.4 months
- Median PFS (Age group <61): 1.9 months
- Median OS (Age group ≥61): 9.0 months
- Median PFS (Age group ≥61): 2.0 months
- HR OS [7]: 0.56
- HR PFS [7]: 0.61
- Median OS (BRAF status Mutant): 3.3 months
- Median PFS (BRAF status Mutant): 1.8 months
- HR OS [8]: 2.38
- HR PFS [8]: 1.40
- Median OS (BRAF status Wild type): 5.8 months
- Median PFS (BRAF status Wild type): 2.0 months
- Disease Control CR/PR/SD, patients n (%) (CHEK2 rs2267130 Any C): 29 (31%)
- Median OS (95% CI) (CHEK2 rs2267130 Any C): 5.5 (4.4, 8.7+) months
- Median PFS (95% CI) (CHEK2 rs2267130 Any C): 2.0 (1.8, 2.3) months
- PD, patients n (%) (CHEK2 rs2267130 Any C): 65 (69%)
- HR OS (95% CI) [9]: 0.70 (0.38, 1.30)
- HR PFS (95% CI) [9]: 1.05 (0.66, 1.67)
- HR OS (95% CI) [10]: 0.94 (0.52, 1.69)
- HR PFS (95% CI) [10]: 1.10 (0.71, 1.72)
- Disease Control CR/PR/SD, patients n (%) (CHEK2 rs2267130 C/C): 9 (29%)
- Median OS (95% CI) (CHEK2 rs2267130 C/C): 5.4 (3.9, 7.1+) months
- Median PFS (95% CI) (CHEK2 rs2267130 C/C): 2.0 (1.8, 2.4) months
- PD, patients n (%) (CHEK2 rs2267130 C/C): 22 (71%)
- HR OS (95% CI) [11]: 0.48 (0.21, 1.09)
- HR PFS (95% CI) [11]: 0.87 (0.49, 1.54)
- HR OS (95% CI) [12]: 0.95 (0.45, 2.00)
- HR PFS (95% CI) [12]: 1.08 (0.62, 1.86)
- Disease Control CR/PR/SD, patients n (%) (CHEK2 rs2267130 T/C): 20 (32%)
- Median PFS (95% CI) (CHEK2 rs2267130 T/C): 2.0 (1.7, 2.3) months
- PD, patients n (%) (CHEK2 rs2267130 T/C): 43 (68%)
- HR OS (95% CI) [13]: 0.83 (0.44, 1.58)
- HR PFS (95% CI) [13]: 1.17 (0.72, 1.91)
- HR OS (95% CI) [14]: 0.93 (0.50, 1.75)
- HR PFS (95% CI) [14]: 1.12 (0.69, 1.79)
- Disease Control CR/PR/SD, patients n (%) (CHEK2 rs2267130 T/T): 8 (24%)
- Median OS (95% CI) (CHEK2 rs2267130 T/T): 5.8 (3.7, 9.0+) months
- Median PFS (95% CI) (CHEK2 rs2267130 T/T): 1.9 (1.9, 2.0) months
- PD, patients n (%) (CHEK2 rs2267130 T/T): 26 (76%)
- Median OS (Grading 1-2): 9.0 months
- Median PFS (Grading 1-2): 2.1 months
- Median OS (Grading 3): 5.3 months
- Median PFS (Grading 3): 1.9 months
- HR OS [15]: 1.38
- HR PFS [15]: 1.15
- Median OS (LN metastasis No): 5.4 months
- Median PFS (LN metastasis No): 2.0 months
- HR OS [16]: 1.24
- HR PFS [16]: 0.99
- Median OS (LN metastasis Yes): 8.8+ months
- Median PFS (LN metastasis Yes): 2.0 months
- Median OS (Liver metastasis No): 8.7+ months
- Median PFS (Liver metastasis No): 2.4 months
- HR OS [17]: 0.69
- HR PFS [17]: 0.52
- Median OS (Liver metastasis Yes): 5.4 months
- Median PFS (Liver metastasis Yes): 1.9 months
- Median OS (Lung metastasis No): 4.1 months
- Median PFS (Lung metastasis No): 1.9 months
- HR OS [18]: 1.46
- HR PFS [18]: 1.62
- Median OS (Lung metastasis Yes): 8.8+ months
- Median PFS (Lung metastasis Yes): 2.1 months
- Median OS (Mucinous histology No): 9.0 months
- Median PFS (Mucinous histology No): 2.0 months
- HR OS [19]: 0.72
- HR PFS [19]: 0.97
- Median OS (Mucinous histology Yes): 5.5 months
- Median PFS (Mucinous histology Yes): 1.9 months
- Median OS (Number of metastases >2): 8.8+ months
- Median PFS (Number of metastases >2): 2.0 months
- HR OS [20]: 0.83
- HR PFS [20]: 1.18
- Median OS (Number of metastases ≤2): 5.5 months
- Median PFS (Number of metastases ≤2): 2.0 months
- Median OS (Performance status ECOG 0): 9.0 months
- Median PFS (Performance status ECOG 0): 2.0 months
- Median OS (Performance status ECOG 1+): 4.1 months
- Median PFS (Performance status ECOG 1+): 1.9 months
